From the NIST ThermoML archive (doi:10.1021/acs.jced.9b00414)
± gives the expanded uncertainty stated by the source.

Details: Liquid, Ebulliometric method (Recirculating still)

CCO [ethanol]
vapor or sublimation pressure (351.45 K): 101.3 ± 1.2 kPa

CCCCOC(=O)CCC [butyl butanoate]
vapor or sublimation pressure (438.28 K): 101.3 ± 1.2 kPa

O=C1CCCCC1 [cyclohexanone]
vapor or sublimation pressure (428.57 K): 101.3 ± 1.2 kPa

COC(=O)OC [dimethyl carbonate]
vapor or sublimation pressure (363.36 K): 101.3 ± 1.2 kPa

Cc1ccccc1C [1,2-dimethylbenzene]
vapor or sublimation pressure (417.43 K): 101.3 ± 1.2 kPa
